Results: patent US20230085307A1, “PYRIDAZINONE COMPOUND AND HERBICIDE” (NISSAN CHEMICAL CORPORATION, priority 2019, published 2023)

Columns and labels:
late watergrass = assay: Test Example 1: herbicidal activity, application before weed generation under submerged conditions (Table 16, symbol A); type: in vivo, late watergrass (Echinochloa oryzicola); settings: amount of applied herbicide 320 g/ha
Outline: (§1)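 Emulsion formulation, water-diluted to set dose, was put onto the flooded surface (4 cm depth, alluvial soil) the same day weeds were sown and 2.5-leaf rice transplanted. After 3 weeks at 25-30 °C under glass, each species was rated 0 (≤5% kill) to 5 (≥90% kill).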

Japanese bulrush [1] = assay: Test Example 1: herbicidal activity, application before weed generation under submerged conditions (Table 16, symbol B); type: in vivo, Japanese bulrush (Schoenoplectus juncoides); settings: amount of applied herbicide 320 g/ha
Outline: as §1

Japanese bulrush [2] = assay: Test Example 2: herbicidal activity, application during weed generation under submerged conditions (Table 17, symbol B); type: in vivo, Japanese bulrush (Schoenoplectus juncoides); settings: AAH 320 g/ha; application during weed generation, submerged conditions
Outline: (§2)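 3-wk visual-criteria score after one water-surface dose. Emulsion formulation, water-diluted to set rate; applied at 1–2 leaf stage; alluvial soil, 4 cm standing water; seeds co-sown; greenhouse 25–30° C.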

oval-leafed pondweed = assay: Test Example 2: herbicidal activity, application during weed generation under submerged conditions (Table 17, symbol C); type: in vivo, oval-leafed pondweed (Monochoria vaginalis); settings: AAH 320 g/ha; application during weed generation, submerged conditions
Outline: as §2

green foxtail [3] = assay: Test Example 4: herbicidal effect by soil treatment (Table 19, symbol G); type: in vivo, green foxtail (Setaria viridis); settings: amount of applied herbicide 320 g/ha
Outline: (§3)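 Seeds were sown in sterilized diluvial soil and covered with about 1.5 cm of soil. An emulsion formulation diluted with water to a predetermined herbicide amount was sprayed evenly onto the soil surface. Plants grew in a greenhouse at 25° C. to 30° C., and the effect was scored three weeks after application using criteria from an earlier test.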

wild oat [4] = assay: Test Example 4: herbicidal effect by soil treatment (Table 19, symbol I); type: in vivo, wild oat (Avena fatua); settings: amount of applied herbicide 320 g/ha
Outline: as §3

blackgrass [5] = assay: Test Example 4: herbicidal effect by soil treatment (Table 19, symbol J); type: in vivo, blackgrass (Alopecurus myosuroides); settings: amount of applied herbicide 320 g/ha
Outline: as §3

Italian ryegrass [6] = assay: Test Example 4: herbicidal effect by soil treatment (Table 19, symbol K); type: in vivo, Italian ryegrass (Lolium multiflorum); settings: amount of applied herbicide 320 g/ha
Outline: as §3

velvetleaf [7] = assay: Test Example 4: herbicidal effect by soil treatment (Table 19, symbol M); type: in vivo, velvetleaf (Abutilon theophrasti); settings: amount of applied herbicide 320 g/ha
Outline: as §3

redroot pigweed = assay: Test Example 4: herbicidal effect by soil treatment (Table 19, symbol N); type: in vivo, redroot pigweed (Amaranthus retroflexus); settings: amount of applied herbicide 320 g/ha
Outline: as §3

lambsquarters = assay: Test Example 4: herbicidal effect by soil treatment (Table 19, symbol O); type: in vivo, lambsquarters (Chenopodium album); settings: amount of applied herbicide 320 g/ha
Outline: as §3

persian speedwell = assay: Test Example 4: herbicidal effect by soil treatment (Table 19, symbol R); type: in vivo, Persian speedwell (Veronica persica); settings: amount of applied herbicide 320 g/ha
Outline: as §3

southern crabgrass = assay: Test Example 5: herbicidal effect by foliage application, plastic box (Table 20, symbol F); type: in vivo, southern crabgrass (Digitaria ciliaris); settings: 320 g/ha; for F: southern crabgrass, herbicidal effect grade: foliage application, three weeks after application
Outline: (§4)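 Plants sown in sterilized diluvial soil and grown 14 days in a greenhouse at 25° C to 30° C, then sprayed on the foliage with the compound's emulsion diluted in water to a predetermined herbicide amount. Injury to weeds and crops scored three weeks after application on a visual rating scale.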

green foxtail [8] = assay: Test Example 5: herbicidal effect by foliage application, plastic box (Table 20, symbol G); type: in vivo, green foxtail (Setaria viridis); settings: 320 g/ha; for G: green foxtail, herbicidal effect grade: foliage application, three weeks after application
Outline: as §4

barnyard grass = assay: Test Example 5: herbicidal effect by foliage application, plastic box (Table 20, symbol H); type: in vivo, barnyard grass (Echinochloa crus-galli); settings: 320 g/ha; for H: barnyard grass, herbicidal effect grade: foliage application, three weeks after application
Outline: as §4

wild oat [9] = assay: Test Example 5: herbicidal effect by foliage application, plastic box (Table 20, symbol I); type: in vivo, wild oat (Avena fatua); settings: 320 g/ha; for I: wild oat, herbicidal effect grade: foliage application, three weeks after application
Outline: as §4

blackgrass [10] = assay: Test Example 5: herbicidal effect by foliage application, plastic box (Table 20, symbol J); type: in vivo, blackgrass (Alopecurus myosuroides); settings: 320 g/ha; for J: blackgrass, herbicidal effect grade: foliage application, three weeks after application
Outline: as §4

Italian ryegrass [11] = assay: Test Example 5: herbicidal effect by foliage application, plastic box (Table 20, symbol K); type: in vivo, Italian ryegrass (Lolium multiflorum); settings: 320 g/ha; for K: Italian ryegrass, herbicidal effect grade: foliage application, three weeks after application
Outline: as §4

windgrass = assay: Test Example 5: herbicidal effect by foliage application, plastic box (Table 20, symbol L); type: in vivo, windgrass (Apera spica-venti); settings: 320 g/ha; for L: windgrass, herbicidal effect grade: foliage application, three weeks after application
Outline: as §4

velvetleaf [12] = assay: Test Example 5: herbicidal effect by foliage application, plastic box (Table 20, symbol M); type: in vivo, velvetleaf (Abutilon theophrasti); settings: 320 g/ha; for M: velvetleaf, herbicidal effect grade: foliage application, three weeks after application
Outline: as §4

chickweed = assay: Test Example 5: herbicidal effect by foliage application, plastic box (Table 20, symbol P); type: in vivo, common chickweed (Stellaria media); settings: 320 g/ha; for P: chickweed, herbicidal effect grade: foliage application, three weeks after application
Outline: as §4

[13] = foliage application after 14-day growth, evaluated three weeks after application

Structure (SMILES): CCCC(=O)Oc1c(C)nn(C)c(=O)c1-c1c(-c2ccc(F)cc2OCC)sc2c(Cl)cccc12 [4-036]
- Herbicidal effect, A: late watergrass (late watergrass): 4 (Herbicidal rate of 70% or more and less than 90%)
- Herbicidal effect, B: Japanese bulrush (Japanese bulrush [1]): 3 (Herbicidal rate of 40% or more and less than 70%)
- herbicidal effect rating, B: Japanese bulrush (Japanese bulrush [2]): 0 (Herbicidal rate of 5% or less (almost no effect))
- herbicidal effect rating, C: oval-leafed pondweed (oval-leafed pondweed): 0 (Herbicidal rate of 5% or less (almost no effect))
- Herbicidal effect by soil treatment, G: green foxtail (green foxtail [3]): 3 (Herbicidal rate of 40% or more and less than 70%)
- Herbicidal effect by soil treatment, I: wild oat (wild oat [4]): 0 (Herbicidal rate of 5% or less (almost no effect))
- Herbicidal effect by soil treatment, J: blackgrass (blackgrass [5]): 0 (Herbicidal rate of 5% or less (almost no effect))
- Herbicidal effect by soil treatment, K: Italian ryegrass (Italian ryegrass [6]): 0 (Herbicidal rate of 5% or less (almost no effect))
- Herbicidal effect by soil treatment, M: velvetleaf (velvetleaf [7]): 2 (Herbicidal rate of 20% or more and less than 40%)
- Herbicidal effect by soil treatment, N: redroot pigweed (redroot pigweed): 4 (Herbicidal rate of 70% or more and less than 90%)
- Herbicidal effect by soil treatment, O: lambsquarters (lambsquarters): 1 (Herbicidal rate of 5% or more and less than 20%)
- Herbicidal effect by soil treatment, R: persian speedwell (persian speedwell): 2 (Herbicidal rate of 20% or more and less than 40%)
- herbicidal effect on F: southern crabgrass (evaluation grade 0-5) (southern crabgrass; [13]): 4 (Herbicidal rate of 70% or more and less than 90%)
- herbicidal effect on G: green foxtail (evaluation grade 0-5) (green foxtail [8]; [13]): 5 (Herbicidal rate of 90% or more (almost completely withered))
- herbicidal effect on H: barnyard grass (evaluation grade 0-5) (barnyard grass; [13]): 5 (Herbicidal rate of 90% or more (almost completely withered))
- herbicidal effect on I: wild oat (evaluation grade 0-5) (wild oat [9]; [13]): 0 (Herbicidal rate of 5% or less (almost no effect))
- herbicidal effect on J: blackgrass (evaluation grade 0-5) (blackgrass [10]; [13]): 3 (Herbicidal rate of 40% or more and less than 70%)
- herbicidal effect on K: Italian ryegrass (evaluation grade 0-5) (Italian ryegrass [11]; [13]): 4 (Herbicidal rate of 70% or more and less than 90%)
- herbicidal effect on L: windgrass (evaluation grade 0-5) (windgrass; [13]): 4 (Herbicidal rate of 70% or more and less than 90%)
- herbicidal effect on M: velvetleaf (evaluation grade 0-5) (velvetleaf [12]; [13]): 5 (Herbicidal rate of 90% or more (almost completely withered))
- herbicidal effect on P: chickweed (evaluation grade 0-5) (chickweed; [13]): 5 (Herbicidal rate of 90% or more (almost completely withered))

Structure (SMILES): CCOc1cc(F)ccc1-c1sc2cc(F)ccc2c1-c1c(O)c(C)nn(C)c1=O [3-011]
- Herbicidal effect, A: late watergrass (late watergrass): 5 (Herbicidal rate of 90% or more (almost completely withered))
- Herbicidal effect, B: Japanese bulrush (Japanese bulrush [1]): 4 (Herbicidal rate of 70% or more and less than 90%)
- herbicidal effect rating, B: Japanese bulrush (Japanese bulrush [2]): 3 (Herbicidal rate of 40% or more and less than 70%)
- herbicidal effect rating, C: oval-leafed pondweed (oval-leafed pondweed): 4 (Herbicidal rate of 70% or more and less than 90%)
- herbicidal effect, G: green foxtail (green foxtail [3]): 5 (Herbicidal rate of 90% or more (almost completely withered))
- herbicidal effect, I: wild oat (wild oat [4]): 4 (Herbicidal rate of 70% or more and less than 90%)
- herbicidal effect, J: blackgrass (blackgrass [5]): 5 (Herbicidal rate of 90% or more (almost completely withered))
- herbicidal effect, K: Italian ryegrass (Italian ryegrass [6]): 3 (Herbicidal rate of 40% or more and less than 70%)
- herbicidal effect, M: velvetleaf (velvetleaf [7]): 4 (Herbicidal rate of 70% or more and less than 90%)
- herbicidal effect, N: redroot pigweed (redroot pigweed): 5 (Herbicidal rate of 90% or more (almost completely withered))
- herbicidal effect, O: lambsquarters (lambsquarters): 5 (Herbicidal rate of 90% or more (almost completely withered))
- herbicidal effect, R: persian speedwell (persian speedwell): 4 (Herbicidal rate of 70% or more and less than 90%)
- F: southern crabgrass, herbicidal effect grade (southern crabgrass): 5 (Herbicidal rate of 90% or more (almost completely withered))
- G: green foxtail, herbicidal effect grade (green foxtail [8]): 5 (Herbicidal rate of 90% or more (almost completely withered))
- H: barnyard grass, herbicidal effect grade (barnyard grass): 5 (Herbicidal rate of 90% or more (almost completely withered))
- I: wild oat, herbicidal effect grade (wild oat [9]): 5 (Herbicidal rate of 90% or more (almost completely withered))
- J: blackgrass, herbicidal effect grade (blackgrass [10]): 5 (Herbicidal rate of 90% or more (almost completely withered))
- K: Italian ryegrass, herbicidal effect grade (Italian ryegrass [11]): 5 (Herbicidal rate of 90% or more (almost completely withered))
- L: windgrass, herbicidal effect grade (windgrass): 5 (Herbicidal rate of 90% or more (almost completely withered))
- M: velvetleaf, herbicidal effect grade (velvetleaf [12]): 5 (Herbicidal rate of 90% or more (almost completely withered))
- P: chickweed, herbicidal effect grade (chickweed): 5 (Herbicidal rate of 90% or more (almost completely withered))

Structure (SMILES): COc1ccc2c(-c3c(O)c(C)nn(C)c3=O)c(-c3ccc(F)cc3OC)sc2c1 [3-076]
- Herbicidal effect, A: late watergrass (late watergrass): 4 (Herbicidal rate of 70% or more and less than 90%)
- Herbicidal effect, B: Japanese bulrush (Japanese bulrush [1]): 5 (Herbicidal rate of 90% or more (almost completely withered))
- herbicidal effect rating, B: Japanese bulrush (Japanese bulrush [2]): 4 (Herbicidal rate of 70% or more and less than 90%)
- herbicidal effect rating, C: oval-leafed pondweed (oval-leafed pondweed): 4 (Herbicidal rate of 70% or more and less than 90%)
- G: green foxtail, herbicidal effect grade (green foxtail [3]): 5 (Herbicidal rate of 90% or more (almost completely withered))
- I: wild oat, herbicidal effect grade (wild oat [4]): 3 (Herbicidal rate of 40% or more and less than 70%)
- J: blackgrass, herbicidal effect grade (blackgrass [5]): 5 (Herbicidal rate of 90% or more (almost completely withered))
- K: Italian ryegrass, herbicidal effect grade (Italian ryegrass [6]): 4 (Herbicidal rate of 70% or more and less than 90%)
- M: velvetleaf, herbicidal effect grade (velvetleaf [7]): 0 (Herbicidal rate of 5% or less (almost no effect))
- N: redroot pigweed, herbicidal effect grade (redroot pigweed): 5 (Herbicidal rate of 90% or more (almost completely withered))
- O: lambsquarters, herbicidal effect grade (lambsquarters): 4 (Herbicidal rate of 70% or more and less than 90%)
- R: persian speedwell, herbicidal effect grade (persian speedwell): 5 (Herbicidal rate of 90% or more (almost completely withered))
- F: southern crabgrass, herbicidal effect grade (southern crabgrass): 3 (Herbicidal rate of 40% or more and less than 70%)
- G: green foxtail, herbicidal effect grade (green foxtail [8]): 5 (Herbicidal rate of 90% or more (almost completely withered))
- H: barnyard grass, herbicidal effect grade (barnyard grass): 3 (Herbicidal rate of 40% or more and less than 70%)
- I: wild oat, herbicidal effect grade (wild oat [9]): 4 (Herbicidal rate of 70% or more and less than 90%)
- J: blackgrass, herbicidal effect grade (blackgrass [10]): 4 (Herbicidal rate of 70% or more and less than 90%)
- K: Italian ryegrass, herbicidal effect grade (Italian ryegrass [11]): 4 (Herbicidal rate of 70% or more and less than 90%)
- L: windgrass, herbicidal effect grade (windgrass): 5 (Herbicidal rate of 90% or more (almost completely withered))
- M: velvetleaf, herbicidal effect grade (velvetleaf [12]): 3 (Herbicidal rate of 40% or more and less than 70%)
- P: chickweed, herbicidal effect grade (chickweed): 5 (Herbicidal rate of 90% or more (almost completely withered))
